From patent publication US9828344B2, “Inhibitors of the notch signaling pathway and secretion for use in medicine” (Leibniz-Institut für Altersforschung Fritz-Lipmann-Institut …, priority 2012, dated 2017)
Values belong to the compound of their own block, whether it stands above or below them. Peptide text beside a SMILES is read from it. * marks the point of attachment. Cbz = O=C(OCc1ccccc1)*

Assays:
[1] = tested on: NotchΔE-EGFP; test: cells; type: cell-based; conditions: for activity in NotchΔE-EGFP cells (enuc/nuc ratios): SAR and prior-art comparison, FIG. 5a/5b; for change of reporter localization quantified by automated microscopy: assay validation, monensin 6 h dose-dependent, MG132 1 μM 16 h
Description: To identify novel regulatory factors involved in Notch trafficking/processing an image-based high content screen was set up. […] NotchΔE-EGFP is a direct substrate for γ-secretase at the PM, and under physiological conditions is proteolytically processed to NICD-EGFP that translocates into the nucleus (for scheme see FIG. 1b), resulting in a strong nuclear EGFP-staining in steady state^15 (FIG. 1d). […] Importantly, changes in subcellular localization of the reporter are amenable to quantitation by automated microscopy^15. Accordingly, reporter fluorescence was determined in the nucleus (nuc) and in a ring around the nucleus (enuc), and the ratio enuc/nuc was evaluated (schematized in FIG. 1c). Thereafter, the assay design was functionally validated. […] The assay also reliably detected trafficking defects in the secretory pathway. […] Taken together, the assay was validated for reliably detecting concentration and time dependent changes in trafficking and processing of the Notch reporter.
Cells were seeded in 96-well plates at a density of 5000 cells/well in 100 μl medium. The next day, 100 μl medium containing the respective test compounds was added. Cells were incubated for 16 h, fixed and processed for automated microscopy. For the putative gamma-secretase inhibitors the enuc intensity was divided by the DAPT control and for the trafficking inhibitors normalized percentage inhibition against DAPT/DMSO controls of log 2 transformed nuc/enuc ratios were calculated. Relative activity values were read into “R” (http://www.r-project.org/) and EC50 estimates were calculated using four-parameter log-logistic fit with the package “drc”^51.
Images were acquired on an ArrayScan VTi automated microscope (ThermoFisher) and numerical data were extracted with the Compartmental Analysis BioApplication of the bundled software suite. Compound screening raw data were collected at the FMP and data transformation was performed according to standard procedures (ref 17 and supp. Refs 6-7).

[2] = tested on: NotchΔE-EGFP; test: Fluorescence microscopy of reporter localization in HeLa NotchΔE-EGFP cells; type: cell-based; conditions: 10 μM compound, 24 h
Method: FIG. 10: Phenotypes of Notch inhibitors are fully reversible. HeLa NotchΔE-EGFP cells plated in LabTek coverglass were incubated for 18 h with 10 iM of indicated compounds, washed and incubated for indicated times in cell culture medium. Cells were imaged by live-microscopy. […] Scalebar, 10 im.
For a detailed analysis of subcelluar distribution of NotchΔE/NICD the resolution of the HCS images was not sufficient. Therefore, the reporter cell line was plated on coverslips and incubated with 10 μM of individual compounds from the final hit list. After 24 h the localization of NotchΔE-EGFP/NICD-EGFP was determined by fluorescence microscopy. […] (FIG. 8).
Immunofluorescence stainings were made using standard procedures^55. Imaging was performed on a Zeiss Axiovert200 or an Axio Imager, using 63× 1.4NA objectives and Zeiss Axiovision software. For live-imaging cells were plated on Lab-Tek chambered coverglass (Thermo-Fisher). Images were assembled and processed using Adobe Photoshop. For displaying weakly stained ER-tubules/sheets non-linear changes in gamma-settings were used.

[3] = tested on: γ-secretase; test: In vitro γ-secretase assay with isolated membranes; type: biochemical; conditions: 37° C.
Method: (§1) FIG. 3: Effect of compounds on NotchΔE-EGFP, APP and Klotho trafficking and processing. a) HEK293 stably expressing APPswe or Klotho (KI) were incubated with DAPT or compounds (10 μM) for 16 h. Media were collected, cells lysed and both assayed by Western blotting using indicated antibodies. m, mature; im, immature; s, shedded ectodomain; CTF, C-terminal fragment. b) Membranes from HeLa-NotchΔE-EGFP and APPswe cells were isolated and subjected to a γ-secretase in vitro assay in the presence of DAPT or compounds as indicated. NICD and AICD were detected by Western Blotting using antibodies against the C-terminus of APP (top) or antibodies specific for NICD (bottom). c) Quantitation from 5 independent experiments.
To test whether FLI-06 affected other membrane proteins, Klotho, a type I protein processed like APP and Notch^20, was analyzed. […] To analyze γ-secretase activity, in vitro assays using isolated membranes were performed (FIG. 3b, c). Production of NICD-EGFP and AICD (APP intracellular domain) were assayed. Both were produced in vitro at 37° C. but not at 4° C., and their production was inhibited by DAPT.
For assaying AICD formation, membranes of HEK293 cells stably expressing APP with the Swedish mutation were isolated and incubated for 4 h at 37° C. according to Sastre et al.^52. For assaying NICD formation, membranes from HeLa NotchΔE-EGFP cells were mixed with membranes from HeLa NotchΔE-EGFP cells that were pre-treated with 10 μM DAPT overnight to enrich substrate. After incubation samples were loaded onto either 8% SDS-PA gels (NICD) or 10-20% Tris-Tricine gels (AICD), blotted and probed with cleaved-Notch antibody or antibody 6687 against APP C-terminus^53. Chemoluminescence was quantified on a LAS-4000 (Fuji) with MultiGauge software.

[4] = tested on: zebrafish embryos; test: Zebrafish embryo Notch phenotype (somites, ngn1 qPCR and ISH); type: in vivo, zebrafish Danio rerio; conditions: for ngn1 positive cell clusters along the spinal cord (ISH): compared to DMSO-treated control embryos; for ngn1 mRNA levels (qPCR): relative to DMSO controls
Method: (§2) Cells were incubated with DAPT or 10 μM of the indicated compounds (50 μM in case of FLI-15 and -20) and after 16 h a luciferase assay was performed. […] Changes in relative gene expression levels (fold change) relative to the expression levels in DMSO controls are represented as the mean+/−SD, asterisks indicate p<0.01. Each measurement was taken from two independent samples. Each reaction was measured in triplicate. Changes in the relative expression of ngn1 were standardized to the expression of the housekeeping gene ef1a at 20 hpf. c) ISH with riboprobes specific for ngn1 was performed on dechorionated stage 4 hpf zebrafish embryos. Anterior is to the left, dorsal to the top. Magnifications of the somite region (small box) are shown. Arrows indicate larger ngn1 clusters or stronger ngn1 staining. s, sensory neurons; i, intermediate neurons; m, motor neurons.
FIG. 11: Selected compounds affect somite formation and neurogenesis in vivo in zebrafish embryos. a) Lateral view of typical representative phenotypes induced by DAPT treatment, which were used as a reference to score the effect of compounds. […] Images were taken at 24 hpf. b) Pie chart showing the cumulative relative frequency of the phenotypes in a) at 24 hpf in embryos treated with 20, 50 and 100 iM of the indicated compounds. c) ISH with riboprobes specific for ngn1 was performed on dechorionated stage 4 hpf zebrafish embryos. Anterior is to the left, dorsal to the top. Magnifications of the developing head (box) are shown. Arrows indicate larger ngn1 clusters or stronger ngn1 staining. t, telencephalon; p, protectum; h, hindbrain; d, diencephalon; tg, tegmentum; vrc, ventral rostral cluster.
(§3) We wanted to test whether the results obtained with the NotchΔE-EGFP construct are relevant for endogenous Notch signaling. Therefore we made use of C2C12 cells, a well established model for muscle development that expresses endogenous Notch^21,22. After stimulating endogenous Notch signaling by transfecting the Notch ligand Delta, Notch activity was measured by a luciferase assay using a Notch reporter^15 in the presence or absence of compounds (FIG. 4a). […] Next, we tested whether selected compounds would affect Notch signaling in vivo. […] Compounds were added to dechorionated stage 4 hpf zebrafish embryos and the effects were analyzed after 24 h by morphological inspection of somite formation. Phenotypes were ranked to four categories, normal somites, mild somite defects, strong somite defects and developmental delay. […] As an additional parameter we decided to analyze Notch-dependent genes involved in neurogenesis. Primary neurogenesis in zebrafish involves the selection of neuroblasts (repressed by Notch) from proneural clusters (Notch expressing cells), a process regulated in a negative manner by Notch-dependent lateral inhibition^25. Accordingly, neuroblast cells that express the neuronal specification factor neurogenin (ngn1^26) became more abundant when Notch signaling was impaired, for instance upon DAPT treatment^23,27. qPCR analyses on mRNA extracted from equivalent sets of embryos was performed for ngn1 expression (FIG. 4b). […] To confirm the data obtained by qPCR, whole-mount in-situ hybridizations (ISH) using an ngn1 specific riboprobe were performed (FIG. 4c, FIG. 11c). […] Taken together, FLI-06, -14, -15, -19 and -20 inhibited endogenous Notch signaling in vitro and in vivo, corroborating the NotchΔE-EGFP reporter data.
Embryos were obtained from natural spawning of wild-type TüAB strain adults, raised and staged according to supp. Ref 14. DAPT and compounds were applied at 50 iM in E3 embryo medium to zebrafish embryos with chorions torn but not completely removed from sphere stage until the stage of analysis, according to ref 23. Control embryos were mock treated with the same concentration of DMSO dissolved in E3 embryo medium. […]

[5] = tested on: NotchΔE-EGFP; test: Western blot of NotchΔE-EGFP processing in HeLa NotchΔE-EGFP lysates; type: cell-based; conditions: 10 μM, 18 h
Method: FIG. 2: Selected compounds from final hit list show distinct phenotypes. Hela NotchΔE-EGFP cells were incubated with compounds (10 μM) for 18 h, fixed and analyzed by fluorescence microscopy (a) or lysed, separated by SDS-PAGE, blotted and probed with antibodies against GFP and NICD (b). Tubulin served as loading control. c) Quantitation of NotchΔE-EGFP accumulation and NICD production from 3-4 experiments as shown in (b). […] Arrows, plasma membrane; scalebar, 10 μm.
Next, lysates of HeLa NotchΔE-EGFP cells treated with compounds were analyzed for processing of NotchΔE-EGFP by Western blot using antibodies specific for EGFP and NICD (FIG. 2b, c). The GFP antibody detected both the uncleaved reporter NotchΔE-EGFP and the γ-secretase product NICD-EGFP, whereas the NICD-specific antibody specifically detected cleaved NICD-EGFP. […] The observed effects were not cell type specific, as they were also apparent in U2OS cells stably expressing NotchΔE-EGFP (FIG. 9).

[6] = tested on: APP; test: APP processing in HEK293 cells stably expressing APPswe; type: cell-based; conditions: 10 μM, 16 h
Method: as §1
To test if the compounds that affected NotchΔE-EGFP processing also affected APP processing, HEK293 cells were used that stably expressed APPswe, a mutated APP that yields robust amounts of Aβ^18. […] All other compounds had no effect on APPCTF or Aβ.
APP, APPs, APPCTF and Aβ detection was as described before^54 using antibodies 22C11 for APP and APPs, 6687 for APPCTF and 3552 and 2D8 for Aβ. Klotho was detected as described in Bloch et al.^20. Chemoluminescence was quantified on a LAS-4000 (Fuji) with MultiGauge software.

[7] = tested on: endogenous Notch signaling; test: Luciferase Notch reporter assay in C2C12 cells transfected with Delta; type: cell-based; conditions: 10 μM, 16 h
Method: as §2, §3
Endogenous Notch signaling in C2C12 was determined by a luciferase assay using a 12xCSL-luciferase reporter and transfected Delta as described before^15.

Structure (SMILES): COCCOC(=O)C1=C(C)NC2=C(C(=O)CC(c3ccc(Cl)cc3)C2)C1c1ccccc1F (stereo not drawn) [C3]
activity in NotchΔE-EGFP cells (enuc/nuc ratios) [1]: no activity

Structure (SMILES): COCCOC(=O)C1=C(C)NC2=C(C(=O)CC(c3ccccc3)C2)C1c1ccccc1F (stereo not drawn) [C4]
activity in NotchΔE-EGFP cells (enuc/nuc ratios) [1]: no activity

Structure (SMILES): COC(=O)C1=C(C)NC2=C(C(=O)CC(c3ccc(Cl)cc3)C2)C1c1ccccc1F (stereo not drawn) [C5]
activity in NotchΔE-EGFP cells (enuc/nuc ratios) [1]: no activity

NICD-EGFP and AICD production in isolated membranes [3]: inhibited
Structure (SMILES): C[C@H](NC(=O)Cc1cc(F)cc(F)c1)C(=O)N[C@H](C(=O)OC(C)(C)C)c1ccccc1 [DAPT, reference compound]
cell viability by visual inspection [1]: viable at all times
t1/2 of decrease of NICD-EGFP fluorescence in the nucleus ([1]; 1 μM DAPT): 4.7 ± 1.0 h
t9/10 of decrease of NICD-EGFP fluorescence in the nucleus ([1]; 1 μM DAPT): 8.6 ± 2.9 h
localization of NotchΔE-EGFP/NICD-EGFP [2]: accumulated at the PM
ngn1 positive cell clusters in the developing brain (ISH) ([4]; 50 μM, compared to DMSO controls): differentially expanded
ngn1 positive cell clusters along the spinal cord (ISH) ([4]; 50 μM): expanded and denser clusters of ngn1 positive cells
ngn1 mRNA levels (qPCR) ([4]; 50 μM): significantly increased
somite/morphological phenotype ([4]; embryos treated from 4-6 hpf, scored at 24 hpf): either defective somitogenesis (mild), head and trunk malformation (strong) or developmental delay (delayed)

Structure (SMILES): COc1ccc(C(=O)O)cc1Nc1nc2ccccc2nc1NS(=O)(=O)c1ccc(Cl)cc1 [FLI-16]
localization of NotchΔE-EGFP/NICD-EGFP [2]: did not alter the reporter localization
NotchΔE-EGFP processing [5]: no influence on NotchΔE-EGFP processing
APPs (shedded ectodomain) secretion [6]: reduced APPs secretion
NICD-EGFP and AICD production in isolated membranes [3]: did not affect in vitro γ-secretase activity
inhibition of endogenous Notch signaling [7]: strongly
ngn1 positive cell clusters along the spinal cord (ISH) ([4]; 50 μM): reduced
ngn1 mRNA levels (qPCR) ([4]; 50 μM): did not induce significant changes

Structure (SMILES): COCCOC(=O)C1=C(C)NC2=C(C(=O)CC(c3ccccc3OC)C2)C1c1cccc(O)c1 (stereo not drawn) [HPI-1]
activity in NotchΔE-EGFP cells (enuc/nuc ratios) [1]: no activity

Structure (SMILES): CC(C)C[C@@H](C=O)NC(=O)[C@H](CC(C)C)NC(=O)[C@H](CC(C)C)NC(=O)OCc1ccccc1 [MG132] (Cbz-Leu-Leu-Leu-aldehyde)
change of reporter localization quantified by automated microscopy [1]: accumulation of NICD in the nucleus

Structure (SMILES): CCCCCOC(=O)C1=C(C)NC2=C(C(=O)CC(C)(C)C2)C1c1ccc([N+](=O)[O-])cc1 (stereo not drawn) [ST216093]
activity in NotchΔE-EGFP cells (enuc/nuc ratios) [1]: show the desired activity

Structure (SMILES): CC1=C(C(=O)OC2CCCCC2)C(c2ccc([N+](=O)[O-])cc2)C2=C(CC(C)(C)C/C2=N\OCC(=O)O)N1 (stereo not drawn) [compound 6, E-2-(((3′-Cyclohexyloxycarbonyl-4″-nitrophenyl-2′,7′,7′-trimethyl-1′,4′,5′,6′,7′,8′-hexahydroquinoline-5′-ylidene)amino)oxy)acetic acid]
activity in NotchΔE-EGFP cells (enuc/nuc ratios) [1]: entirely inactive

Structure (SMILES): CC[C@@]1([C@@H]2O[C@@H]([C@H]3O[C@@](O)(CO)[C@H](C)C[C@@H]3C)C[C@@H]2C)CC[C@H]([C@]2(C)CC[C@]3(C[C@H](O)[C@@H](C)[C@@H]([C@@H](C)[C@@H](OC)[C@H](C)C(=O)O)O3)O2)O1 [monensin]
change of reporter localization quantified by automated microscopy [1]: blocking the anterograde transport of NotchΔE-EGFP
